Reference: US20100173972A1, “METHODS AND USES RELATED TO RHBDL4” (MEDICAL RESEARCH COUNCIL, priority 2007, published 2010)
“Also recorded” adds a separate entry of the source.

T1: mouse RHBDL4 (Mus musculus, UniProt Q8BHC7)
T1 sequence (Q8BHC7 1-315): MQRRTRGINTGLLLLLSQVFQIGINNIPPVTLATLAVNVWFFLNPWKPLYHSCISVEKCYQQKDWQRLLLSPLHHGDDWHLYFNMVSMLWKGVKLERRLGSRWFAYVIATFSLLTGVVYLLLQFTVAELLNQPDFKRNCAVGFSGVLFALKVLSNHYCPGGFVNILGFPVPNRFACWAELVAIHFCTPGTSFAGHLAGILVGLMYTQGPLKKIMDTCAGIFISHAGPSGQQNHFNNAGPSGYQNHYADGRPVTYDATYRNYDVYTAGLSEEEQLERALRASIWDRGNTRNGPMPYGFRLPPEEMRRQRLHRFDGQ

B1: recombinant mouse TACE (R&D Systems) (protein)
chain: RAEPNPLKNTCKLLVVADHRFYKYMGRGEESTTTNYLIELIDRVDDIYRNTSWDNAGFKGYGVQIEQIRILKSPQEVKPGERHFNMAKSFPNEEKDAWDVKMLLEQFSFDIAEEASKVCLAHLFTYQDFDMGTLGLAYVGSPRANSHGGVCPKAYYNPTVKKNIYLNSGLTSTKNYGKTILTKEADLVTTHELGHNFGAEHDPDGLAECAPNEDQGGKYVMYPIAVSGDHENNKMFSNCSKQSIYKTIESKAQECFQERSNKVCGNSRVDEGEECDPGIMYLNNDTCCNSDCTLKPGVQCSDRNSPCCKNCQFETAQKKCQEAINATCKGVSYCTGNSSECPPPGDAEDDTVCLDLGKCKAGKCIPFCKREQELESCACVDTDNSCKVCCRNLSGPCVPYVDAEQKNLFLRKGKPCTVGFCDMNGKCEKRVQDVIERFWDFIDQLSINTFGKFLADN

How the values were obtained:
[1] = tested on: cells; experiment: Toxicity of DCI to cells during TGFalpha release experiment; assay type: cell-based; conditions: over several hours, similar time course as TGFalpha release
Text: A central prediction of our model is that the observed BB94-insensitive TGFalpha release would be inhibited by the serine protease inhibitor DCI, a rhomboid inhibitor. […] To help the cells survive, we expressed the antiapoptotic protein Bch XL. […] Overall, these experiments strongly support that EGFR transactivation is triggered by RHBDL4-catalysed shedding of pro-TGFalpha.
Cell culture and cell-based rhomboid cleavage assay. Cells were propagated in DMEM supplemented with 10% fetal calf serum. COS-7 cells were transfected in 35 mm wells with FuGENE 6 (Roche) as described (7). In brief, 250 ng plasmid encoding the substrate (as indicated in the description of the figures), 25 ng for the rhomboid tested, 50 ng for the GRP receptor and empty plasmid to bring the total DNA to 1 μg was used. For protease titration, 2.5 ng to 250 ng plasmid coding RHBDL4 was used. […] Transfection efficiency was monitored by co-transfection of pEGFP (Invitrogen). […] Cells were solubilized in SDS-sample buffer and analyzed by SDS-PAGE. […] The precipitate was recovered by centrifugation, washed with acetone and dissolved in SDS-PAGE sample buffer and analyzed by SDS-PAGE. […] Subsequently beads were washed with 20 mM Tris-Cl pH 8.0, 50 mM imidazole, eluted with SDS-sample buffer and analyzed by SDS-PAGE and Western blotting (see below). […]

[2] = target: T1, mouse RHBDL4; experiment: In vitro activity assay with recombinant mouse RHBDL4 (Gurken TMD substrate); assay type: biochemical; set-up: His6 (C); made in house; host or cells: E. coli BL21-Gold(DE3) with pRARE2; Triton X-100 solubilised membrane fraction; conditions: Triton-X 100 solubilised E. coli membrane fraction; also run with mouse RHBDL1 and human RHBDL2
Text: To produce recombinant RHBDL4, a RHBDL4-purification tag fusion protein is expressed and solubilised with detergent appropriate for in vitro activity assay. In this example, C-terminally His6-tagged mouse RHBDL4 is expressed in E. coli BL21-Gold(DE3) cells harbouring the expression vector and the extra plasmid pRARE2 (Novagen) as described for human RHBDL2 (Lemberg, 2005, EMBO vol 24 pp 464-472).
After the protein expression, cells are disrupted and membranes containing the recombinant RHBDL4 are harvested by centrifugation as had been described (Lemberg, 2005 above).
Subsequently the recombinant protein is solubilised with the detergent Triton-X 100 and tested for activity.
Radiolabelled substrate, such as the substrate TMD, is generated by cell-free in vitro translation using wheat germ extract and [35S]methionine as, had been described (Lemberg and Martoglio, 2003 Anal Biochem. vol 319 pp 327-31).
In this example a substrate corresponding to an N-terminal methionine plus residues 224 to 272 of Drosophila Gurken is used. […]
For the cleavage assay, 1-4 μl in vitro translation mix or 50-200 μg/ml recombinant substrate are added to a 40 μl-reaction containing recombinant RHBDL4 (e.g. about 1-5 μg) in 50 mM HEPES/NaOH, pH 7.4, 10% glycerol and 50 mM EDTA. Samples are incubated at 30° C. and subsequently the cleavage reaction is analyzed by SDS-PAGE as described (Lemberg, 2005 above). […]

[3] = tested on: TGFalpha release, HEK293T cells; experiment: Time course after PMA induction of HEK293T cells overexpressing pro-TGFalpha, with protease inhibitors; assay type: cell-based, human; conditions: DCI 100 μM; HEK293T; Bcl-XL co-expressed
Procedure: Cell culture and cell-based rhomboid cleavage assay. Cells were propagated in DMEM supplemented with 10% fetal calf serum. COS-7 cells were transfected in 35 mm wells with FuGENE 6 (Roche) as described (7). In brief, 250 ng plasmid encoding the substrate (as indicated in the description of the figures), 25 ng for the rhomboid tested, 50 ng for the GRP receptor and empty plasmid to bring the total DNA to 1 μg was used. For protease titration, 2.5 ng to 250 ng plasmid coding RHBDL4 was used. HeLa and HEK293T were transfected with polyethyleneimine (linear, MW 25000; Polysciences) as described (32) using twice the amount of DNA as used with FuGENE. Transfection efficiency was monitored by co-transfection of pEGFP (Invitrogen). Sixteen hours post transfection, medium was replaced with serum-free medium containing 10 μM BB94 (British Biotech) unless otherwise stated. For activation of endogenous rhomboid activity, phorbol 12-myristate 13-acetate (PMA) (1 μM, from Sigma) or bombesin (100 nM, from Sigma) was added to the cell medium. For inhibitor studies, the indicated protease inhibitors (from Calbiochem), diluted from a stock solution in DMSO, were compared with a carrier only. Medium was harvested typically after 24 to 30 hours; for inhibitor studies using 3,4-Dichloroisocoumarin (DCI) a time course with 0 minutes, 30 minutes and 4 hours was performed (FIG. 4C). Cells were solubilized in SDS-sample buffer and analyzed by SDS-PAGE. EndoH (New England Biolabs) and PNGaseF (New England Biolabs) treatment of SDS-solubilized cell extracts was performed according to the manufacturers instructions. Conditioned media were centrifuged for 10 minutes at full speed in a microfuge to remove cell debris, and subsequently proteins in the supernatant were precipitated by adding trichloroacetic acid (TCA) to 10%. The precipitate was recovered by centrifugation, washed with acetone and dissolved in SDS-PAGE sample buffer and analyzed by SDS-PAGE. Alternatively to TCA precipitation, TGFalpha-H8 in conditioned medium was captured by metal-chelate chromatography using Ni-NTA agarose beads (Qiagen) in the presence of 20 mM imidazole at pH 8.0. Subsequently beads were washed with 20 mM Tris-Cl pH 8.0, 50 mM imidazole, eluted with SDS-sample buffer and analyzed by SDS-PAGE and Western blotting (see below). Typically, from a 35 mm tissue culture dish, 10% of cell extracts and 20% of tissue culture supernatant were loaded. To increase the sensitivity, for experiments shown in FIGS. 1C, 3E, 4A and 4C, five times the amount of the media fractions were loaded.
Western blotting. Proteins were analyzed by 4-20% Tris-Glycine gradient gels (Invitrogen) followed by Western blot analysis using either anti FLAG M2-HRP (1:1000; Sigma), anti HA antibody 16B12 (1:1000; Covance), anti actin antibody ab8227 (1:5000; Abcam) or affinity purified polyclonal rabbit antibody anti RHBDL4 (1:4000; see above). In order to detect the 6 kDa form of TGFalpha, proteins were transferred on PVDF membrane with 0.2 μm pore size (Millipore) and probed with 1:100 anti TGFalpha antibody 134A-2B3 (Oncogene). For the detection of phosphorylated EGFR, PVDF membranes were blocked in 3% BSA in TBS-Tween supplemented with 200 μM NaVO3. Protein was detected with anti phospho-EGFR antibody 9H2 (1:2000, Upstate). […] Bound antibodies were detected by incubation with secondary antibody (Santa Cruz Biotechnology) followed by enhanced chemiluminescence (Amersham Biosciences).

[4] = target: RHBDL4-processed extracellular TGFalpha (post-translationally modified higher MW forms), P01135
Chain of RHBDL4-processed extracellular TGFalpha (post-translationally modified higher MW forms), P01135 (P01135 whole entry, looked up, tested part not stated): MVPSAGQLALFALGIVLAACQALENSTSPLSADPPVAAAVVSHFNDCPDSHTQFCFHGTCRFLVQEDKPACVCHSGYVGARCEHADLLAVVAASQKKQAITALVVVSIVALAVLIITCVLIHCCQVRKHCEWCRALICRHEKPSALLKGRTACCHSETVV

Molecule | Toxicity to cells [1] | Cleavage of Drosophila Gurken TMD substrate [2] | Release of the 37 kDa form of TGFalpha in response to PMA [3] | in vitro TACE cleavage assay (Western blot) [4]
O=c1oc(Cl)c(Cl)c2ccccc12 [DCI, 3,4-Dichloroisocoumarin] | toxic to cells | inhibited | inhibited; also recorded: strong and specific inhibitory effect | –
B1 | – | – | – | Recombinant TACE cleaved the post-translationally modified higher MW forms of TGFalpha. (filled triangles), generating the mature 6 kDa form
